Measurements published in US20240374738A1, “BIFUNCTIONAL COMPOUND CAPABLE OF DEGRADING RECEPTOR TYROSINE KINASE AND APPLICATION THEREOF” (TAIBIDI PHARMACEUTICAL TECHNOLOGY (SHIJIAZHUANG) CO., LTD., priority 2023, published 2024).

Columns and labels:
Assay type in all cases: cell-based
MKN45 = assay: Growth inhibition of gastric cancer cells MKN45 (CCK-8); details: Homo sapiens, MKN-45, half inhibitory concentration, 72 hours
Method: (§1) Inoculate gastric cancer cells (SNU5 or MKN45) into a 96 well plate at a concentration of […], with 100 μl added to each well. Incubate for 30 minutes. Observe the cell status under a microscope. Prepare compounds, weigh a certain amount of the series compounds or reference drug cabozantinib of this patent, first prepare a high concentration mother liquor with pure DMSO, and use gradient dilution method to prepare a concentration of 200 μM, 60 μM, 20 μM, 6 μM, 2 μM, 600 nM, 200 nM, 0 nM drug solution, shake to make it fully mixed. The control group was prepared with cabozantinib using the same solvent and method.
(§2) After preparation, add 1 μl of drug solution to each well of the 96 well plate, and then add 100 μl of culture medium. Repeat each dose three times. Gently shake to allow the cells and medication to come into full contact and incubate in the incubator for 72 hours. 72 hours later, remove and color with CCK-8 reagent kit. Add 20 μl of CCK-8 reagent to each well, gently shake well, and incubate in the incubator for 1 hour. After 1 hour, remove and measure the absorbance of each well using an enzyme-linked immunosorbent assay (ELISA) reader at a wavelength of 450 nm.
(§3) According to the formula: Cell growth inhibition rate=[1−(absorbance of experimental group absorbance of culture medium control group)/(absorbance of blank control group−absorbance of culture medium control group)]×100%. It can be concluded that the compound has the ability to inhibit the growth of gastric cancer cells at the current dose and time.
(§4) Draw a graph based on the gradient of concentration and use GraphPad Prism 9 software (GraphPad Software, La Jolla, CA) to calculate the maximum inhibitory concentration (IC50) at 50%.
(§5) Referring to steps 1 and 2 of this embodiment, the inhibitory effect of the compound of the present invention on the growth of cancer cells and the degradation effect of target proteins were measured, and the following results were obtained (see Table 2 below).
(§6) The growth inhibitory effects of the compound of the present invention on tumor cell lines MKN45 and SNU5 were measured. The activity is expressed as half inhibitory concentration (C50). The results are shown in Table 2 below; When the half inhibitory concentration is less than or equal to 100 nM, the compound activity is labeled as “++++”; When the half inhibitory concentration is greater than 100 nM and less than 500 nM, the compound activity is labeled as […] and less than 1000 nM, the compound activity is labeled as “++”; When the half inhibitory concentration is greater than 1000 nM and less than 3000 nM, the compound activity is marked as “+”; When the half inhibitory concentration is greater than 3000 nM, the compound activity is marked as […]

SNU5 = assay: Growth inhibition of gastric cancer cells SNU5 (CCK-8); details: Homo sapiens, SNU-5, half inhibitory concentration, 72 hours
Method: as §1, §2, §3, §4, §5, §6

DDR1 = DDR1 (Homo sapiens, UniProt Q08345); assay: Degradation of DDR1 in tumor cell MKN45 (Western blot); set-up: The degradation activity of the compounds against DDR1 in the MKN45 cell line; endogenous in cells; host or cells: MKN45; details: MKN-45, maximum degradation percentage, MKN45 cells, 24 hours
Method: Western blot experiment: Take gastric cancer cells (MKN45) and inoculate them into a 6-well plate at a concentration of […], adding 2 ml to each well and incubating for 24 hours.
The next day, observe the cells under a microscope to confirm their status. Prepare compounds, weigh a certain amount of the series compounds or reference drug cabozantinib from this patent, first prepare a high concentration mother liquor with pure DMSO, and use gradient dilution method to prepare compound concentrations of 2 mM, 200 μM, 100 μM, 20 μM, 2 μM, 200 nM, and 0 nM. The final concentration of DMSO is 0.5%. Shake to thoroughly mix. Add 10 μl of solution to each well. After incubation for 24 hours, remove the cells and use a pipette to aspirate the suspended cells into a 1.5 ml centrifuge tube. Centrifuge at 5000 rpm for 10 minutes to precipitate the cells. Carefully remove the cell precipitate from the culture medium, add 1 ml of PBS and shake slightly. After repeated cleaning for 3 times, dry the residue. Add 150 μl of RIPA lysate pre mixed with 1% PMSF, blow to allow the lysate to fully contact the cells, and incubate on ice for 10 minutes. Centrifuge at 12000 rpm for 10 minutes, extract the supernatant, use the BCA protein quantification kit to determine and homogenize the sample loading.
Mix BCA-A in a 50:1 ratio Prepare working solution with B solution, dilute the sample by 5 times, then pipette 20 μl onto a 96 well ELISA plate. Add 200 μl of pre mixed BCA working solution and incubate at 37° C. for 20 minutes. Measure the A562 nm absorbance value using an ELISA reader and substitute it into the protein standard curve formula to obtain the sample concentration. After calculating the required volume for loading […] of sample, divide the sample into 1.5 ml centrifuge tubes. Add 10 μl of sample buffer to each tube and mix well. Heat in a 95° C. metal bath for 5 minutes to denature the protein.
Take 4-20% gradient pre adhesive and fix it on the adhesive rack. Add electrophoresis solution to the slot and remove the comb, Marker and protein samples were loaded, and after 30 minutes of electrophoresis at 80V, the voltage was adjusted to 120V for electrophoresis, The marker band stops electrophoresis at the forefront of the gel. Take out the adhesive block and cut it to the appropriate size, The PVDF membrane was cut and activated in methanol, and after activation, the PVDF membrane was equilibrated in a membrane transfer equilibrium solution for 1 minute. Using sponge pads The sequence of PVDF film, adhesive, and sponge pad is placed in the splint and placed in the eBlot equipment for rapid wet rotation. Remove the membrane and seal it in 5% skim milk powder dissolved in 1×TBST for 1 hour. Cut the membrane according to the molecular weight of the target protein and internal reference protein, and place it in primary antibody diluted with 1×TBST. Shake overnight at 4° C.
The next day, transfer the band to 1×TBST for 3 washes, then add a specific dilution of the secondary antibody and shake it for 1.5 hours. Transfer the band again to 1×TBST for 3 washes, prepare ECL color solution, place the membrane in the imaging system, cover the surface with ECL color solution, and take photos of the membrane using the imaging system.
Using the SHST analysis system to analyze the results, measure the grayscale values of each band of the target protein and internal reference protein. Normalize the grayscale values of the target protein/corresponding lane GAPDH grayscale values, and perform quantitative analysis according to the protein amount=experimental group grayscale value/blank control group grayscale value.
The activity of the compound of the present invention in degrading DDR in tumor cell line MKN45 was measured. […]

Sequence of DDR1 (Q08345 19-913): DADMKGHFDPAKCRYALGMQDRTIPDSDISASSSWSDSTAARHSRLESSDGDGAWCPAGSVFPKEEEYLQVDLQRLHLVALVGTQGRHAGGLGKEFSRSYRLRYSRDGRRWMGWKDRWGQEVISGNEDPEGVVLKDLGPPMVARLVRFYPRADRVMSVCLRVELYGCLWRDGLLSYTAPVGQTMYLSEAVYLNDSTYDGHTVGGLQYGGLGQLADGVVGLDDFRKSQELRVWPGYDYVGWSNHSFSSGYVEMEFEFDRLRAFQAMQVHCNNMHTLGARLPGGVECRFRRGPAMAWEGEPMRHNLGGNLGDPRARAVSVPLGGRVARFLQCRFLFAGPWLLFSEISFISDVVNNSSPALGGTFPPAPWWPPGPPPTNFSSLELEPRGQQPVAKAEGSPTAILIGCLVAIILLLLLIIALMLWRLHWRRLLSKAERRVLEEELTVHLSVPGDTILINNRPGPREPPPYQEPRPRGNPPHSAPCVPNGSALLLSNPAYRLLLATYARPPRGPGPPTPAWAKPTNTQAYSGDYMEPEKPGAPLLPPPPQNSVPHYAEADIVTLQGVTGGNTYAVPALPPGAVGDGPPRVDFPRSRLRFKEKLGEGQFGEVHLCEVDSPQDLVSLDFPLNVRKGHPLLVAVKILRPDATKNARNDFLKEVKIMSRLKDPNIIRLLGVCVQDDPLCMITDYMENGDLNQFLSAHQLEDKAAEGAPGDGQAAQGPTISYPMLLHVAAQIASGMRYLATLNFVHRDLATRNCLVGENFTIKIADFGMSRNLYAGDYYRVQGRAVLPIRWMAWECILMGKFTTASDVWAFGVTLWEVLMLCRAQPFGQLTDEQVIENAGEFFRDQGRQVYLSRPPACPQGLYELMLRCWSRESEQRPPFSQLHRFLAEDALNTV

| Compound | IC50 (MKN45) [µM] | IC50 (SNU5) [µM] | Dmax (DDR1) [%] |
| --- | --- | --- | --- |
| COc1cc2c(Oc3ccc(NC(=O)C4(C(=O)Nc5ccc(F)cc5)CC4)cc3)ccnc2cc1N1CCC(NC(=O)C2(C(=O)N[C@H](C(=O)N3C[C@H](O)C[C@H]3C(=O)NCc3ccc(-c4scnc4C)cc3)C(C)(C)C)CC2)CC1 [TPD5424] | 1 to 3 | 0.5 to 1 | 65 to 75 |
| C[C@@H](Oc1cc(-c2cnn(C3CCN(CCC(=O)Nc4cccc5c4CN(C4CCC(=O)NC4=O)C5=O)CC3)c2)cnc1N)c1c(Cl)ccc(F)c1Cl (stereo partly drawn) [TPD10040] | ≤ 0.1 | ≤ 0.1 | 75 to 85 |
| COc1cc2c(Oc3ccc(NC(=O)C4(C(=O)Nc5ccc(F)cc5)CC4)cc3)ccnc2cc1N1CCC(CC(=O)N[C@H](C(=O)N2C[C@H](O)C[C@H]2C(=O)NCc2ccc(-c3scnc3C)cc2)C(C)(C)C)CC1 [TPD5410] | ≤ 0.1 | ≤ 0.1 | 65 to 75 |
| COc1cc2c(Oc3ccc(NC(=O)C4(C(=O)Nc5ccc(F)cc5)CC4)cc3)ccnc2cc1N1CCC(CN2C3CC2CN(CCC#Cc2cccc4c2CN(C2CCC(=O)NC2=O)C4=O)C3)CC1 (stereo not drawn) [TPD12234] | ≤ 0.1 | ≤ 0.1 | 75 to 85 |
| COc1cc2c(Oc3ccc(NC(=O)C4(C(=O)Nc5ccc(F)cc5)CC4)cc3)ccnc2cc1N1CCC(C(=O)N2CCC(C(=O)N[C@H](C(=O)N3C[C@H](O)C[C@H]3C(=O)NCc3ccc(-c4scnc4C)cc3)C(C)(C)C)CC2)CC1 [TPD5436] | 0.1 to 0.5 | 0.1 to 0.5 | 65 to 75 |
| COc1cc2c(Oc3ccc(NC(=O)C4(C(=O)Nc5ccc(F)cc5)CC4)cc3)ccnc2cc1N1CCC(CN2CCC(C(=O)N3C[C@H](O)C[C@H]3C(=O)NCc3ccc(-c4scnc4C)cc3)CC2)CC1 [TPD5421] | 0.1 to 0.5 | 0.1 to 0.5 | 75 to 85 |
| COc1cc2c(Oc3ccc(NC(=O)C4(C(=O)Nc5ccc(F)cc5)CC4)cc3)ccnc2cc1N1CCC(CN2C[C@H]3C[C@@H]2CN3CCCNc2cc3c(cn2)C(=O)N(C2CCC(=O)NC2=O)C3)CC1 (stereo partly drawn) [TPD12116] | ≤ 0.1 | ≤ 0.1 | 75 to 85 |
| COc1cc2c(Oc3ccc(NC(=O)C4(C(=O)Nc5ccc(F)cc5)CC4)cc3)ccnc2cc1N1CCC(N2CC(C(=O)N[C@H](C(=O)N3C[C@H](O)C[C@H]3C(=O)NCc3ccc(-c4scnc4C)cc3)C(C)(C)C)C2)CC1 [TPD5432] | 0.1 to 0.5 | ≤ 0.1 | 75 to 85 |
| COc1cc2c(Oc3ccc(NC(=O)C4(C(=O)Nc5ccc(F)cc5)CC4)cc3)ccnc2cc1N1CCC(CN2CC(C(=O)N3C[C@H](O)C[C@H]3C(=O)NCc3ccc(-c4scnc4C)cc3)C2)CC1 [TPD5430] | 1 to 3 | 1 to 3 | 65 to 75 |
| COc1cc2c(Oc3ccc(NC(=O)C4(C(=O)Nc5ccc(F)cc5)CC4)cc3)ccnc2cc1N1CCC(N2CCN(C(=O)CCOCC(=O)N[C@H](C(=O)N3C[C@H](O)C[C@H]3C(=O)NCc3ccc(-c4scnc4C)cc3)C(C)(C)C)CC2)CC1 [TPD5495] | 0.1 to 0.5 | 0.1 to 0.5 | 75 to 85 |
| COc1cc2c(Oc3ccc(NC(=O)C4(C(=O)Nc5ccc(F)cc5)CC4)cc3)ccnc2cc1N1CCC(CN2C3CC2CN(CCC#Cc2ccc4c(c2)CN(C2CCC(=O)NC2=O)C4=O)C3)CC1 (stereo not drawn) [TPD12236] | ≤ 0.1 | ≤ 0.1 | 75 to 85 |
| COc1cc2c(Oc3ccc(NC(=O)C4(C(=O)Nc5ccc(F)cc5)CC4)cc3)ccnc2cc1NCCC(=O)N[C@H](C(=O)N1C[C@H](O)C[C@H]1C(=O)NCc1ccc(-c2scnc2C)cc1)C(C)(C)C [TPD5415] | 0.1 to 0.5 | 0.1 to 0.5 | 65 to 75 |
| COc1cc2c(Oc3ccc(NC(=O)C4(C(=O)Nc5ccc(F)cc5)CC4)cc3)ccnc2cc1N1CCC(CN2CCN(CC(=O)Nc3cccc4c3CN(C3CCC(=O)NC3=O)C4=O)CC2)CC1 (stereo not drawn) [TPD5901] | ≤ 0.1 | ≤ 0.1 | > 85 |
| COc1cc2c(Oc3ccc(NC(=O)C4(C(=O)Nc5ccc(F)cc5)CC4)cc3)ccnc2cc1N1CCC(OCCC(=O)N[C@H](C(=O)N2C[C@H](O)C[C@H]2C(=O)NCc2ccc(-c3scnc3C)cc2)C(C)(C)C)CC1 [TPD5412] | 0.1 to 0.5 | 0.1 to 0.5 | 65 to 75 |
| COc1cc2c(Oc3ccc(NC(=O)C4(C(=O)Nc5ccc(F)cc5)CC4)cc3)ccnc2cc1N1CCC(CN2CCN(CCNc3ccc4c(n3)C(=O)N(C3CCC(=O)NC3=O)C4)CC2)CC1 (stereo not drawn) [TPD12013] | 0.1 to 0.5 | 0.1 to 0.5 | > 85 |
| CNC(=O)c1ccc(-c2cnc3ncc(Cc4ccc5ncc(NC(=O)CN6CCC(CN7CCN(c8ccc9c(c8)C(=O)N(C8CCC(=O)NC8=O)C9=O)CC7)CC6)cc5c4)n3n2)cc1F (stereo not drawn) [TPD7026] | ≤ 0.1 | ≤ 0.1 | 65 to 75 |
| COc1cc2c(Oc3ccc(NC(=O)C4(C(=O)Nc5ccc(F)cc5)CC4)cc3)ccnc2cc1N1CCC(N2CCN(C(=O)CCCCC(=O)N[C@H](C(=O)N3C[C@H](O)C[C@H]3C(=O)NCc3ccc(-c4scnc4C)cc3)C(C)(C)C)CC2)CC1 [TPD5494] | 1 to 3 | 0.1 to 0.5 | > 85 |
| COc1cc2c(Oc3ccc(NC(=O)C4(C(=O)Nc5ccc(F)cc5)CC4)cc3)ccnc2cc1N1CCC(CN2CCN(CCNc3cc4c(cn3)C(=O)N(C3CCC(=O)NC3=O)C4)CC2)CC1 (stereo not drawn) [TPD12003] | ≤ 0.1 | ≤ 0.1 | 75 to 85 |
| O=C1CCC(N2Cc3cc(NC(=O)CCN4CC5CC(C4)N5CC4CCN(c5cc6nccc(Oc7ccc(NC(=O)C8(C(=O)Nc9ccc(F)cc9)CC8)cc7)c6cc5F)CC4)ncc3C2=O)C(=O)N1 (stereo not drawn) [TPD12162] | ≤ 0.1 | ≤ 0.1 | 65 to 75 |
| COc1cc2c(Oc3ccc(NC(=O)C4(C(=O)Nc5ccc(F)cc5)CC4)cc3)ccnc2cc1N1CCC(CN2CCN(CCCc3cccc4c3CN(C3CCC(=O)NC3=O)C4=O)CC2)CC1 (stereo not drawn) [TPD5937] | ≤ 0.1 | ≤ 0.1 | 65 to 75 |
